ChEMBL document CHEMBL1201862, “PubChem BioAssay data set” (2004)
Values belong to the molecule of their own block, whether it stands above or below them. Active and inactive are the calls of the source.

Columns and labels:
[1] = target: Beta Lactamase (Pseudomonas aeruginosa, UniProt Q932Y6); experiment: BLA reporter interference, concentration series – BLA reporter cells, FRET fluorescence, artefact control for TLR9-MyD88 binding inhibitor project, dose response (AID 588341); assay type: cell-based;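 also: cell based assay in CHO-K1 cells stably expressing beta-lactamase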
[2] = cAMP pathway inhibition in counterscreen cell line – TR-FRET cAMP detection, counter-screen for MC4R biased antagonist project, dose response (AID 602305); assay type: functional, cell-based;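 also: U2OS cells stimulated with forskolin near its EC80 as the cAMP inducer; potency is for inhibition of forskolin-stimulated cAMP signaling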
[3] = test system: INS1; experiment: INS-1E survival protection against cytokine death – cell-based, luminescence, retest, dose response (AID 449756); assay type: functional; settings: Rattus norvegicus;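 also: cell death triggered by IL-1 beta plus TNF-alpha plus IFN-gamma mixture; protective hits raise ATP signal compared with cytokine alone wells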
[4] = target: T1, High affinity choline transporter 1 (Homo sapiens, UniProt Q9GZV3); experiment: human choline transporter blockers, potency – cell-based, 5-point CRC, membrane potential dye, dose response (AID 504840); assay type: functional
T1 sequence (Q9GZV3 whole entry): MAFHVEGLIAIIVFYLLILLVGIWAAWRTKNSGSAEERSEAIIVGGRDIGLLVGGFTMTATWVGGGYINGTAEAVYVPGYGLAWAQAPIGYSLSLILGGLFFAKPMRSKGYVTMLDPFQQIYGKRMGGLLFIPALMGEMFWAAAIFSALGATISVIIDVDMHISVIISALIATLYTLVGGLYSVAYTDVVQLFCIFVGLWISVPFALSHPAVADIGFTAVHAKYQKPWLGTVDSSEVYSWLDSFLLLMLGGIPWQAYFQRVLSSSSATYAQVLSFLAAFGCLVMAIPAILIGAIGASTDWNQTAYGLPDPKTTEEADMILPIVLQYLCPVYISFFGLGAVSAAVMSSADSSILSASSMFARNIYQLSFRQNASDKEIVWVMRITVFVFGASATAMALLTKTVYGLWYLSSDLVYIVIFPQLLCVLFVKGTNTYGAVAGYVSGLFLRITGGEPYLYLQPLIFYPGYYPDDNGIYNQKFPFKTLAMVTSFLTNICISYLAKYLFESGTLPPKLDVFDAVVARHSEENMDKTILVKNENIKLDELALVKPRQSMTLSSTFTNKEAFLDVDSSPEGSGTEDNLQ

[5] = target: T2, RNA-binding protein pos-1 (Caenorhabditis elegans, UniProt G5EF15); experiment: disruptors of C. elegans POS-1 RNA interaction – biochemical, fluorescence polarization, dose response (AID 1964);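 also: purified POS-1 fused to maltose binding protein made in E. coli; potency of compounds blocking POS-1 binding to fluorescent RNA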
T2 sequence (G5EF15 whole entry): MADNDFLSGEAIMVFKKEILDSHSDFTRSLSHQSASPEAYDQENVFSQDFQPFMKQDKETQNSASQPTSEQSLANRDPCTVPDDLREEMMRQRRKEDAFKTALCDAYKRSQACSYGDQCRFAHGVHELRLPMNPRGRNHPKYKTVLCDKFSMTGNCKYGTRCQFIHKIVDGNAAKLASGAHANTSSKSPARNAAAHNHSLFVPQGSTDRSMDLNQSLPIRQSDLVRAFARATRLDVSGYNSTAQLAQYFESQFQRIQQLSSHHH

[6] = viability loss in HepG2 hepatoma cells – cell-based, ATP luminescence, cherry-pick, activator set 2, cytotoxicity control, dose response (AID 1053143); assay type: functional
[7] = test system: Streptococcus sp. 'group A'; experiment: Streptococcus pyogenes SK(-)GAS viability under kanamycin – luminescence, BacTiterGlo, confirmation, counter-screen for streptokinase expression inhibitor project, dose response (AID 1900); assay type: functional, organism-based

Beta Lactamase, sequence (Q932Y6 whole entry): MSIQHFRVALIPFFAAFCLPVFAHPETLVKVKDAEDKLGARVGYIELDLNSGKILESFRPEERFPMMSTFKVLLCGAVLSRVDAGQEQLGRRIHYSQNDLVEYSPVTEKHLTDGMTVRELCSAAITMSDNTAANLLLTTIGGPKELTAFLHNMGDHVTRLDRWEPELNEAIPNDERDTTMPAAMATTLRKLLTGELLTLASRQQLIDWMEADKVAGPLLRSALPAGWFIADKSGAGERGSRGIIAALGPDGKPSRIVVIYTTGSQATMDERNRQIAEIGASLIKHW

Compound: CCC1CCCCN1S(=O)(=O)c1ccc(NC(=O)c2nc(S(C)(=O)=O)ncc2Cl)cc1 (configuration not stated)
- IC50 [1]: 11.1 µM (inactive)
- IC50 [2]: > 64.6 µM (inactive)
- AC50 [3]: 5.24 µM (active)
- IC50 [4]: 15.8 µM (active)

- EC50 [5]: > 300 µM (inconclusive)
Compound: CCCC[n+]1ccn(C2=C([N-]S(=O)(=O)c3ccc(Cl)cc3)C(=O)c3ccccc3C2=O)c1

Compound: CC(=O)c1cccc2c1N=C(c1[nH]c3ccccc3c1O)C2=O
- AC50 [6]: 22.4 µM (active)
- EC50 [7]: 3.8 µM (active)
